According to patent US9382286B2, “Treatment of EBV and KHSV infection and associated abnormal cellular proliferation” (EMORY UNIVERSITY, priority 2001, dated 2016):

Test system: HIV-1LAI
Experiment: Anti-HIV-1 activity in human PBM cells
Format: cell-based
Settings: Human immunodeficiency virus 1, PBMC; read-out: EC50 against human immunodeficiency virus type 1
Experimental: Anti-HIV-1 activity of the compounds was determined in human peripheral blood mononuclear (PBM) cells as described previously (Schinazi R. F., McMillan A., Cannon D., Mathis R., Lloyd R. M. Jr., Peck A., Sommadossi J.-P., St. Clair M., Wilson J., Furman P. A., Painter G., Choi W.-B., Liotta D. C. Antimicrob. Agents Chemother. 1992, 36, 2423; Schinazi, R. F., Sommadossi J.-P., Saalmann V., Cannon D., Xie M.-Y., Hart G., Smith G., Hahn E. Antimicrob. Agents Chemother. 1990, 34, 1061). Stock solutions (20-40 mM) of the compounds were prepared in sterile DMSO and then diluted to the desired concentration in growth medium. Cells were infected with the prototype HIV-1LAI at a multiplicity of infection of 0.01. Virus obtained from the cell supernatant was quantified on day 6 after infection by a reverse transcriptase assay using (rA)n.(dT)12-18 as template-primer. The DMSO present in the diluted solution (<0.1%) had no effect on the virus yield. AZT was included as positive control. The toxicity of some compounds was assessed in Vero, human PBM, and CEM cells, as described previously (Schinazi R. F., Sommadossi J.-P., Saalmann V., Cannon D. L., Xie M.-Y., Hart G. C., Smith G. A., Hahn E. F. Antimicrob Agents Chemother. 1990, 34, 1061-1067). Cycloheximide was included as positive cytotoxic control, and untreated cells exposed to solvent were included as negative controls. […]

Structure (SMILES)	EC50 [nM]
C#Cc1cn([C@H]2CC(O)[C@@H](CO)O2)c(=O)[nH]c1=O (stereo partly drawn) [5-ethynyl-dU, β-D-2′-deoxy-5-ethynyluridine]	610

Target: T1, EBV-TK (Epstein-Barr virus, UniProt P03177)
T1 construct: expressed in transfected cells; host or cells: 143B TK- human osteosarcoma cells and 293 human embryonic kidney cells, stably transfected with pCMV EBV-TK
T1 sequence (P03177 whole entry): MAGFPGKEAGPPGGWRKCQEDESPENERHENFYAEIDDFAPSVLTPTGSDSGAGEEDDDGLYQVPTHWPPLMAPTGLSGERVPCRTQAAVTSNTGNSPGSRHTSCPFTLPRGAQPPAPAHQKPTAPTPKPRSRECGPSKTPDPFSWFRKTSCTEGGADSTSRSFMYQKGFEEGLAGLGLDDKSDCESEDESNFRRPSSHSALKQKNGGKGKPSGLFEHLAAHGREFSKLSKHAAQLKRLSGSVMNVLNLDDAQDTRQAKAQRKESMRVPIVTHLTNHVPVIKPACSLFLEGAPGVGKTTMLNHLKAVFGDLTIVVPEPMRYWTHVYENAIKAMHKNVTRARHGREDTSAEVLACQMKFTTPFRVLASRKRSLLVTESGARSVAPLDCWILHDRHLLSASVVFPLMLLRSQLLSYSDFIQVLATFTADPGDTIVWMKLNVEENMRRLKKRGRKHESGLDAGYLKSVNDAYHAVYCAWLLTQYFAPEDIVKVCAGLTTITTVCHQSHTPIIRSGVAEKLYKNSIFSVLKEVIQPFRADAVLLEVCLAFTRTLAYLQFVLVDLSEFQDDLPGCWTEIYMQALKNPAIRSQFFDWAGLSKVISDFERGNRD
Experiment: Selectivity for EBV-TK: thymidine phosphorylation competition and cytotoxicity assays on EBV-TK-expressing cells
Format: cell-based
Settings: EBV-TK versus human cellular thymidine kinase
Experimental: J. Virol. 74, 684-692). EBV-TK was incubated in an optimized buffer with 15 μM 3H-dT as substrate in a final volume of 100 μL. The enzyme source was either lysate from 143B EBV-TK-expressing cells or purified GST EBV-TK from E. coli. The amount of enzyme was adjusted so that the reaction proceeded linearly for over 60 min. A 10-fold excess (150 μM) of the nucleoside analog being tested was included in the experiment. The reaction was halted at 30 min. by spotting 50 μL of the reaction onto positively charged DE-81 discs (Whatman). After washing four times with 5 mM ammonium formate and once with 95% ethanol, the discs were dried and counted in a scintillation counter. The CPM of the positive control reaction containing no nucleoside analog was taken as 100% activity.
This assay measures the ability of a candidate nucleoside to specifically eliminate EBV-infected cells in the continuous presence of drug. 143B TK-cells lack TK-1. 293 cells contain human TK-1. Therefore, these assays comparatively assess the effects of human TK expression on toxicity. Stock solutions (20-40 mM) of the compounds were prepared in sterile DMSO and then diluted to the desired concentration in growth medium. The cells (143B TK-, 293 EBV-TK or 293 Neo control cells) were cultured in the presence of drug for 5 days, and the media was replaced with fresh media containing drug on day three. Cells were then washed one time with PBS, fixed with 4% formaldehyde/1% methanol and stained with 1% crystal violet in 20% ethanol for visualization of the cell monolayer. […] Cultures with this designation often have media that is still “pink,” indicating a slowdown of cellular metabolism. Identical samples are assessed in triplicate.
Stock solutions (20-40 mM) of the compounds were prepared in sterile DMSO and then diluted to the desired concentration in growth medium. Exponentially growing cells were incubated with the nucleoside in question for 24 h, plated in 24-well plates at 50 viable cells per well and incubated for 7-9 days in the absence of drug. Cells were fixed and stained as above and colonies were counted. A nucleoside can cause a decrease in the number of colonies, which is an indirect indication of the number of cells able to survive and to replicate after the initial exposure to drug.
Two cell systems are employed to determine the toxicity of each nucleoside. The information obtained depends upon the system used. In 143B TK-cells, cytotoxic drugs that are dependent upon phosphorylation by a TK are easily identified. 143B TK-cells expressing either EBV-TK or hTK1 permit assessment of whether either enzyme independently may cause a drug to become cytotoxic. Thus, drugs that can be activated by hTK1, which would cause non-specific cytotoxicity, are readily identified. One drawback is that these cells are grown in HAT media that “forces” nucleosides through the TK salvage pathway (EBV-TK or hTK1). A false positive may arise if a nucleoside out-competes dT for phosphorylation such that sufficient amounts of dT are not available for cellular replication. This toxicity may not be present or may be reduced in a cell that has the synthetic as well as salvage pathways available for dTTP production. For this reason, the 293 system was developed. These cells have endogenous hTK1 and EBV-TK is maintained by selection in G418. Thus, the normal hTK1 salvage pathway is operational, and nucleosides can be expected to flux through the cells normally. Drugs are incubated with 293 cells transformed with a neomycin (Neo) expressing plasmid (Neo control) and with cells transfected with the same plasmid also expressing EBV-TK. A nucleoside selectively activated by EBV-TK should cause toxicity on 293 EBV-TK and not on 293 Neo control cells. In both the 143B and 293 cell systems, toxicity is evaluated by cell survival. The cells are cultured in the presence of drug for 5 days, and the media replaced with fresh media containing drug on day 3. […]

Structure (SMILES)	selectivity for EBV-TK (specifically phosphorylated and converted into a cytotoxic agent by EBV-TK)
O=c1[nH]c(=O)n([C@@H]2CO[C@H](CO)O2)cc1-c1cccs1 [(2S,4S)-5-(2-thienyl)-1-[2-(hydroxymethyl)-1,3-dioxolan-4-yl]uracil]	selectivity for EBV-TK
O=C(O)/C=C/c1cn([C@H]2CC(O)[C@@H](CO)O2)c(=O)[nH]c1=O (stereo partly drawn) [β-D-5-E-(2-carboxyvinyl)-2′-deoxyuridine]	selectivity for EBV-TK
O=c1[nH]c(=O)n([C@@H]2CO[C@H](CO)O2)cc1-c1ccc(Br)s1 [(2S,4S)-5-(5-bromthien-2-yl)-1-[2-(hydroxymethyl)-1,3-dioxolan-4-yl]uracil]	selectivity for EBV-TK
O=c1[nH]c(=O)n([C@@H]2CC(O)[C@H](CO)O2)cc1I (stereo partly drawn) [β-L-2′-deoxy-5-iodouridine]	selectivity for EBV-TK
C=Cc1cn([C@@H]2CC(O)[C@H](CO)O2)c(=O)[nH]c1=O (stereo partly drawn) [β-L-2′-deoxy-5-vinyluridine]	selectivity for EBV-TK
C=Cc1cn([C@H]2O[C@@H](CO)C(O)C2O)c(=O)[nH]c1=O (stereo partly drawn) [β-L-5-vinyluridine]	selectivity for EBV-TK
O=c1[nH]c(=O)n([C@@H]2CO[C@H](CO)O2)cc1-c1ccco1 [(2S,4S)-5-(2-furanyl)-1-[2-(hydroxymethyl)-1,3-dioxolan-4-yl]uracil]	selectivity for EBV-TK
O=c1[nH]c(=O)n([C@H]2CC(O)[C@@H](CO)O2)cc1CO (stereo partly drawn) [β-D-2′-deoxy-5-(hydroxymethyl)uridine]	selectivity for EBV-TK
O=c1[nH]c(=O)n([C@@H]2CO[C@H](CO)O2)cc1-c1ccc(Br)o1 [(2S,4S)-5-(5-bromo-2-furanyl)-1-[2-(hydroxymethyl)-1,3-dioxolan-4-yl]uracil]	selectivity for EBV-TK
CCCCc1cn([C@H]2CC(O)[C@@H](CO)O2)c(=O)[nH]c1=O (stereo partly drawn) [β-D-5-butyl-2′-deoxyuridine]	selectivity for EBV-TK
O=c1[nH]c(=O)n([C@@H]2CO[C@H](CO)O2)cc1/C=C/CO [(2S,4S)-5-(3-hydroxypropenyl)-1-[2-(hydroxymethyl)-1,3-dioxolan-4-yl]uracil]	selectivity for EBV-TK
C=Cc1cn([C@H]2CC(O)[C@@H](CO)O2)c(=O)[nH]c1=O (stereo partly drawn) [5-vinyl-dU, β-D-2′-deoxy-5-vinyluridine]	selectivity for EBV-TK
